Drawing on ChEMBL document CHEMBL3044642, “Antimycobacterial activity of fractions and isolated compounds from Vetiveria zizanioides” (2012), this text covers MIC for five compounds.

Common to all, as to type: functional
Test [1] deals with Mycolicibacterium smegmatis. Put plainly: Antimycobacterial activity against rifampicin,amphiciline and kanamycin-resistant Mycobacterium smegmatis MDR-40 after 24 hr by two-fold serial micro broth dilution method. The conditions noted are these: MDR-40, 24 h.
Test [2] concerns Mycolicibacterium smegmatis. The experiment in a line: Antimycobacterial activity against quinolones and ciprofloxacin-resistant Mycobacterium smegmatis MDRQ after 24 hr by two-fold serial micro broth dilution method. (Broth dilution looks for growth in wells or tubes with falling amounts of substance.)
In test [3] the test system is Mycolicibacterium smegmatis. The experiment in a line: Antimycobacterial activity against ciprofloxacin,lomofloxacin and norflaxacin-resistant Mycobacterium smegmatis CSC-101 after 24 hr by two-fold serial micro broth dilution method. The conditions noted are these: CSC-101, 24 h.
Test [4] has as its system Mycolicibacterium smegmatis. The experiment in a line: Antimycobacterial activity against rifampicin,tetracycline and chloramphenicol-resistant Mycobacterium smegmatis MDR-R after 24 hr by two-fold serial micro broth dilution method.
Test [5] has as its system Mycolicibacterium smegmatis. The experiment in a line: Antimycobacterial activity against lomofloxacin-resistant Mycobacterium smegmatis Lom R5 after 24 hr by two-fold serial micro broth dilution method. Conditions: Lom R5, 24 h.
Test [6] deals with Mycolicibacterium smegmatis. Put plainly: Antimycobacterial activity against Mycobacterium smegmatis str. MC2 155 after 24 hr by two-fold serial micro broth dilution method. The conditions noted are these: str. MC2 155, 24 h.

Values after ≈ are worked out from the molar mass of the structure shown.

The MIC is the lowest concentration that inhibits growth of the organism. Higher therefore signals a need for much substance. Consider `CCn1cc(C(=O)O)c(=O)c2cc(F)c(N3CCNC(C)C3)c(F)c21` (stereo not given) [LOMEFLOXACIN], for which the minimal inhibitory concentration (MIC) in test [1] was 2.5 µg/mL (≈ 7.12 µM); in test [2], over 50 µg/mL; in test [3], under 1 µg/mL; in test [4], 10 µg/mL (≈ 28.5 µM); in test [5] it was over 50 µg/mL; in test [6], 0.78 µg/mL (≈ 2.22 µM).
Turning to `CCCCC#CCCCC#CCCCCO`, the MIC in test [1] is 31.2 µg/mL (≈ 142 µM); in test [2], 250 µg/mL (≈ 1130 µM); in test [3], 62.5 µg/mL (≈ 284 µM); in test [4], 31.2 µg/mL (≈ 142 µM); in test [5], over 250 µg/mL; in test [6], 125 µg/mL (≈ 567 µM).
With `O=C(O)c1cn(C2CC2)c2cc(N3CCNCC3)c(F)cc2c1=O` [CIPROFLOXACIN], the MIC in test [1] is over 25 µg/mL; in test [2] it was 25 µg/mL (≈ 75.4 µM); in test [3] it was 3.12 µg/mL (≈ 9.43 µM); in test [4], 3.12 µg/mL (≈ 9.43 µM); in test [5], 25 µg/mL (≈ 75.4 µM); in test [6], 0.78 µg/mL (≈ 2.35 µM).
With `CC1(C)CCC[C@@]2(C)C(CO)[C@H]3CC[C@H]2C3C1` (stereo not given in full) [HYDROXY JUNEPENE], the minimum inhibitory concentration (MIC) in test [1] is 31.2 µg/mL (≈ 132 µM); in test [2], over 250 µg/mL; in test [3], 125 µg/mL (≈ 529 µM); in test [4], 62.5 µg/mL (≈ 264 µM); in test [5] it was over 250 µg/mL; in test [6], 62.5 µg/mL (≈ 264 µM).
Turning to `CCn1cc(C(=O)O)c(=O)c2ccc(C)nc21` [NALIDIXIC ACID], the MIC in test [1] stood at 50 µg/mL (≈ 215 µM); in test [2], 50 µg/mL (≈ 215 µM); in test [3], 6.25 µg/mL (≈ 26.9 µM); in test [4], 50 µg/mL (≈ 215 µM); in test [5], 25 µg/mL (≈ 108 µM); in test [6], 0.78 µg/mL (≈ 3.36 µM).
